Values quoted from earlier work as cited in patent US11439617B2, “Polymeric compositions of monomethyl fumarate and their use in treating relapsing remitting multiple sclerosis and psoriasis” (priority 2017, dated 2022).
Structures can show the parent of a compound that is named as a salt.

Conditions: in vivo

Question: For `COC(=O)/C=C/C(=O)O` [MMF, monomethyl fumarate], which Tmax is on record?
Answer: about 2.5 hours

Question: And the half-life in circulation?
Answer: 36 h
